# Laboratory results published in PubChem BioAssay AID586 (The Scripps Research Institute Molecular Screening Center, 2007).
# Active and inactive are the calls of the source. How the calls were made is not given here.
# Test system: antigen receptor-induced NF-kappaB activation reporter, cells
# Assay: inhibitors of antigen receptor-triggered NF-kB signaling, dose response, cell-based (AID 586)
row,IC50,Compound
1,1240 nM,O=C(c1ccc(Cl)cc1)N1CCCCC(Sc2nnc(-c3ccc4c(c3)OCO4)o2)C1=O (stereo not given)
2,2260 nM,O=C(CN1C(=O)c2ccccc2S1(=O)=O)N1CCc2ccccc21
3,6610 nM,COc1cc(C2C(C#N)=C(C)NC3=C2C(=O)c2ccccc23)cc(OC)c1OC (stereo not given)
4,7040 nM,Cc1cccc(N2CCN(C(=O)c3ccc(CS(=O)(=O)c4ccccc4C)o3)CC2C)c1 (stereo not given)
5,738 nM,CCN(c1ccccc1)S(=O)(=O)c1ccc(Oc2ccc(-n3ccnc3)cc2)nc1
6,> 30000 nM (inactive),Cc1cc(C)nc(N2CCC(C(=O)NCCc3ccc(F)cc3)CC2)n1
7,> 9970 nM (inactive),COc1cccc(NC(=O)CSc2nnc(-c3cc(C)n(-c4ccccc4)c3C)o2)c1
8,17900 nM (inactive),COc1ccccc1C(=O)N1CCN(c2cccc(Cl)c2)CC1
9,> 30000 nM (inactive),Cc1ccc(-c2nsc3c(N4CCC(C(N)=O)CC4)ncnc23)cc1
10,11600 nM (inactive),CCOC(=O)c1ccccc1NC(=O)Cn1c(-c2nonc2N)nc2ccccc21
11,257 nM,COc1ccc(OCc2cccc(C(=O)O)c2)cc1
12,> 30000 nM (inactive),Clc1ccc(COn2nnc3ccccc32)c(Cl)c1
13,1640 nM,COc1cc(CC(NC(C)=O)C(=O)NC2CCN(c3nc(C)cc(C)c3C#N)CC2)cc(OC)c1 (stereo not given)
14,1040 nM,CCCN1C=CC(=C2C(=O)c3ccccc3C2=O)C=C1
15,2280 nM,O=C(Nc1nc2ccccc2[nH]1)c1ccccc1F
16,310 nM,Cc1cc(C(=O)CN2C(=O)c3ccccc3S2(=O)=O)c(C)n1CC1CCCO1 (stereo not given)
17,> 30000 nM (inactive),Cc1cc(C(=O)OCC(=O)NCc2ccco2)c(C)n1-c1ccccc1
18,4750 nM,CCN1C=CC(=C2C(=O)c3ccccc3C2=O)C=C1
19,10300 nM (inactive),CSc1nnc2c3ccccc3n(CCc3ccccc3)c2n1
20,316 nM,CCOC(=O)c1[nH]c2c(c1C)C(=O)CC(c1ccco1)C2 (stereo not given)
21,> 9970 nM (inactive),Cc1nn(Cc2c(Cl)cccc2Cl)c(C)c1NC(=O)c1cc(C(C)C)on1
22,73 nM,CC1CCCN(c2ncnc3c2cnn3-c2ccc(Cl)cc2)C1 (stereo not given)
23,2060 nM,Cc1ccc(-c2nc(-c3ccccn3)no2)cc1
24,3030 nM,O=C(/C=C\Nc1ccc2c(c1)OCO2)c1ccccn1
25,4100 nM,COCCn1c(C)cc(C(=O)CSc2nnc(C)s2)c1C
26,1830 nM,CCOc1ccc(-c2nc(CSCC(=O)NCc3ccco3)c(C)o2)cc1
27,1150 nM,Cc1ccc2nc(-c3ccccc3)cn2c1

row,IC50,Compound
1,5020 nM,N#CC1=C2SCC(O)(c3ccccc3)N2C(=O)CC1c1cccs1 (stereo not given)
2,1710 nM,Oc1c(C(Nc2nc3ccccc3s2)c2ccco2)ccc2cccnc12 (stereo not given)
3,4840 nM,COc1cccc2c(C)c(C(=O)O)[nH]c12
4,> 30000 nM (inactive),COc1ccc(-c2noc(CCCC(=O)O)n2)cc1
5,438 nM,Cc1oc2cc3c(C(=O)OCCN(C)C)c(C)oc3cc2c1C(=O)OCCN(C)C
6,10600 nM (inactive),Cc1ccc(Nc2cc(C)nn2-c2nc(C)cc(=O)[nH]2)cc1
7,1160 nM,Cc1oc(-c2ccccc2Cl)nc1CSCC(=O)N1CCCC1
8,> 9970 nM (inactive),CCN(CC)c1ccc2cc(-c3nc4ccccc4n3C)c(=O)oc2c1
9,700 nM,COC(=O)C1=C(CN2CCCc3ccccc32)NC(=O)NC1c1ccc(F)cc1 (stereo not given)
10,1860 nM,Cc1nn(-c2ccccc2)c(Cl)c1C1C(C#N)=C(N)Oc2n[nH]c(C)c21 (stereo not given)
11,3410 nM,Cc1cccc(C)c1-n1nnnc1SCSc1nnnn1-c1c(C)cccc1C
12,4220 nM,O=C(Nc1ccc(N2CCOCC2)cc1)c1cnsn1
13,> 9970 nM (inactive),CCN(CC)c1ccc2cc(NC(=O)CCC(=O)O)c(=O)oc2c1
14,2570 nM,CCOc1ccc(OCc2cccc(C(=O)N3CCOCC3)c2)cc1
15,615 nM,O=C(O)c1cccc(COc2ccccc2Cl)c1
16,> 30000 nM (inactive),O=C(NC1c2ccccc2-c2ccccc21)N1CCCCC1
17,2600 nM,CCCCn1c(SCc2c(C)noc2C)nc2cc(S(N)(=O)=O)ccc21
18,> 30000 nM (inactive),O=C(O)[C@@H]1CCCC[C@@H]1C(=O)N1CCc2ccccc2C1CN1C(=O)c2ccccc2C1=O (stereo not given in full)
19,2250 nM,Cn1c(=O)n(C)c2cc(C(=O)Nc3ccc4c(c3)OCO4)ccc21
20,1870 nM,COc1ccc2c(c1)sc1nc(-c3ccccc3)cn12
21,2660 nM,COc1ccc(-n2ncc3c(N4CCCCC4)ncnc32)cc1
22,1090 nM,c1ccc(-c2cccc(-c3ccccn3)n2)nc1
23,8250 nM,C=C(C)COc1ccc(-c2[nH]ncc2-c2ccc(OC)c(OC)c2)c(O)c1
24,766 nM,COc1cc(C2C(C#N)=C(N)Oc3cc(N(C)C)ccc32)cc2c1OCO2 (stereo not given)
25,> 9970 nM (inactive),COc1ccccc1-c1nnc2sc(-c3ccc(N(C)C)cc3)nn12
26,3290 nM,Cc1ccc(-c2cc3c(nn2)-c2ccccc2C3=O)cc1
27,192 nM,CCOc1ccc(OCc2cccc(C(=O)O)c2)cc1

row,IC50,Compound
1,4510 nM,CCCN(CCC)S(=O)(=O)c1ccc(C(=O)Nc2nnc(-c3cccc(OC)c3)o2)cc1
2,> 30000 nM (inactive),Cn1cc(/C=N/n2cnc3scc(-c4ccc(Cl)cc4)c3c2=O)c2ccccc21
3,1420 nM,COc1ccc(C2=Nn3c(nnc3-c3ccccc3OC)SC2)cc1OC
4,> 30000 nM (inactive),CCNc1ccc(C(=O)OCC)cc1NC(=O)c1cccc(N(C)C)c1
5,953 nM,Cc1ccc(-c2cnc(NC(=O)CCC(=O)N3CCCCC3)n2C)cc1
6,565 nM,Cc1csc(NC(=O)c2sc3nc(-c4cccs4)ccc3c2N)n1
7,3900 nM,COc1ccc(C(=O)NC(=O)Nc2cc(C)ccn2)cc1
8,> 30000 nM (inactive),Cc1cc(-n2c(C)cc(C(=O)CSc3ncnc4ccccc34)c2C)no1
9,2500 nM,Cc1nn(Cc2ccccc2Cl)c(C)c1C(=O)Nc1nnc(C2CC2)s1
10,> 30000 nM (inactive),COc1cccc(C=Nc2cccnc2)c1O
11,730 nM,CC(=O)c1ccc(-c2nc3c4ccccc4ccn3c2C(C)=O)o1
12,1540 nM,COc1cc(OC)cc(-c2cc3nc(C)c(CCC(=O)O)c(C)n3n2)c1
13,1180 nM,COc1cc(NC(=O)c2cccc3c2C(=O)N(Cc2cccnc2)C3)cc(OC)c1OC
14,1450 nM,CCn1c2ccccc2c2cc(Nc3cc(C)nc4ncnn34)ccc21
15,300 nM,CC(C)(C)c1ccc(-c2noc(CCC(N)=O)n2)cc1
16,14600 nM (inactive),COc1cccc(Oc2cnc(N)nc2-c2ccc(OC)cc2O)c1
17,17000 nM (inactive),CNC(=O)CCc1nc(-c2ccc(C(C)(C)C)cc2)no1
18,2940 nM,CCN1C(=O)c2cccc3c(S(=O)(=O)Nc4ccccn4)ccc1c23
19,6590 nM,Cc1cccc(-n2ncc3c(N(C)C4CCCCC4)ncnc32)c1
20,5460 nM,Cc1ccc(C(=O)NCCn2cc(SCC(=O)Nc3cc(C)on3)c3ccccc32)cc1
21,1610 nM,CCNC(=O)CCc1nc(-c2ccc(C(C)(C)C)cc2)no1
22,203 nM,CC1CCN(c2nc3ccc(C(=O)O)cc3s2)CC1
23,> 9970 nM (inactive),CC1=CC(C)(C)Nc2ccc(OC(=O)c3cccnc3)cc21
24,1350 nM,CCOc1ccccc1NC(=O)Cn1nnc(C(=O)NCc2ccco2)c1N
25,6570 nM,N#Cc1c(NC(=O)CSc2ncn[nH]2)sc2c1CCCCC2
26,1400 nM,c1ccc(-c2noc(-c3ccc4ccccc4c3)n2)nc1
27,20900 nM (inactive),COc1ccc2cc(C(=O)NCc3ccco3)c(=Nc3ccc(C(=O)O)cc3)oc2c1

row,IC50,Compound
1,2420 nM,O=C(NC1=NCCS1)C1COc2ccccc2O1 (stereo not given)
2,8420 nM,Cc1cccc2cc(CN(Cc3cccs3)C(c3nnnn3C3CCCC3)C(C)C)c(=O)[nH]c12 (stereo not given)
3,1650 nM,CN(C)c1ccc2c(c1)OC(N)=C(C#N)C2c1cccc(F)c1 (stereo not given)
4,> 30000 nM (inactive),CCOc1ccccc1NC(=O)c1cccc(NC(=O)c2ccco2)c1
5,8970 nM,NC(=O)c1sc2nccc(Nc3ccccc3)c2c1N
6,> 30000 nM (inactive),c1ccc(-c2noc(-c3ccc4c(c3)OCO4)n2)nc1
7,> 9970 nM (inactive),CCOC(=O)c1[nH]c(C)c(C(=O)c2cc(F)ccc2F)c1C
8,13200 nM (inactive),COC(=O)c1[nH]c2c(c1C)C(=O)CC(c1ccccc1)C2 (stereo not given)
9,3300 nM,O=c1c2ccccc2cnn1-c1nc2ccccc2s1
10,> 30000 nM (inactive),CC(C)c1nnc(NC(=O)c2c(O)c3cccc4c3n(c2=O)CCC4)s1
11,2650 nM,O=C(Cc1cccs1)Nc1nc2c(s1)CCCC2
12,25000 nM (inactive),CCCOc1ccccc1C1CC(=O)Nc2cc3c(cc21)OCCO3 (stereo not given)
13,> 30000 nM (inactive),COc1cc(C(=O)N2CCN(c3cc(Cl)ccc3Cl)CC2)cc(OC)c1OC
14,4600 nM,CCOc1ccc(-c2cc(C(=O)O)c3ccccc3n2)c(OCC)c1
15,6840 nM,CC1=CC(C)(C)Nc2ccc(OC(=O)CN3C(=O)CCC3=O)cc21
16,> 30000 nM (inactive),O=C(CSc1nnnn1C1CC2CCC1C2)Nc1ccnc2ccccc12 (stereo not given)
17,2320 nM,O=C(NCc1cccs1)c1nc2c(nnn2Cc2ccccc2Cl)c(=O)[nH]1
18,> 30000 nM (inactive),CCCOc1c(OC)cccc1C1CC(=O)Nc2cc(OC)c(OC)c(OC)c21 (stereo not given)
19,> 30000 nM (inactive),O=C1NC(Nc2nc3ccccc3s2)(C(F)(F)F)C(=O)N1C1CCCCC1 (stereo not given)
20,8330 nM,CCOC(=O)C(C(C)=O)c1c(Br)c(O)c(O)c2c(C(=O)c3ccc(C)cc3)coc12 (stereo not given)
21,1670 nM,Cc1c(C(=O)OCCOC(C)C)[nH]c2c1C(=O)CC(c1ccco1)C2 (stereo not given)
22,3280 nM,COc1cccc(-c2nnc3n2N=C(C(C)(C)C)CS3)c1
23,252 nM,O=C(O)c1cccc(COc2ccc(CO)cc2Cl)c1
24,819 nM,CCN(CC)c1ccc(-c2nn3c(-c4ccccc4OC)nnc3s2)cc1
